Assays:
[1] = Bulk density, ASTM D6683-19; type: physicochemical
[2] = patients; cited from earlier work
[3] = tested on: chick embryo yolk sac membrane (YSM) blood vessels; test: In ovo chick embryo yolk sac membrane (YSM) angiogenesis model; type: in vivo, white Leghorn breed of fowls; settings: all tested concentrations, 24 hr after treatment, in comparison with control

Substance | bulk density [1] [g/mL] | dyspepsia [2] [%] | elevation in liver enzymes [2] [%] | headache [2] [%] | herpes zoster reactivation [2] [%] | menorrhagia [2] [%] | rash [2] [%] | number of quaternary blood vessels [3]
Arsenic tri oxide [ATO] | 1.3336 | 24 | 42 | 29 | 13 | 4 | 11 | –
Avastin: monoclonal antibody targeted against VEGF, approved by FDA for therapeutic intervention in cancer | – | – | – | – | – | – | – | significant decrease
